Experimental data: US12011444B2, “N-substituted indole derivatives as PGE2 receptor modulators” (Idorsia Pharmaceuticals Ltd, priority 2015, dated 2024)

Key:
PTRGER4 (EP4) = PTRGER4 (EP4) (Homo sapiens (Human), UniProt P35408); assay: hEP4 b-arrestin assay (PathHunter HEK 293 PTGER4 b-arrestin cells); type: cell-based; settings: antagonistic activity on hEP4; mean where measured multiple times
How it was run: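 Antagonist mode: compound is given 15 min at 37 °C, then 20 nM (final) PGE2 for 120 min, in HEK293 cells stably expressing EP4 fused to ProLink and β-arrestin 2 fused to EA. Recruitment read as β-gal luminescence after 1 h reagent at room temperature, as percent of DMSO control.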

PTGER2 (EP2) = PTGER2 (EP2) (Homo sapiens (Human), UniProt P43116); assay: hEP2 b-arrestin assay (PathHunter HEK 293 PTGER2 b-arrestin cells); type: cell-based; settings: antagonistic activity on hEP2; mean where measured multiple times
How it was run: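 Readout is β-galactosidase complementation luminescence, expressed as percent of DMSO control (duplicates). PathHunter HEK293 EP2/β-arrestin 2 cells, grown 24 h, received compound for 15 min at 37 °C before a 120 min challenge with PGE2 at 5 μM final, followed by 1 h detection at room temperature.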

Chain of PTGER2 (EP2) (P43116 whole entry): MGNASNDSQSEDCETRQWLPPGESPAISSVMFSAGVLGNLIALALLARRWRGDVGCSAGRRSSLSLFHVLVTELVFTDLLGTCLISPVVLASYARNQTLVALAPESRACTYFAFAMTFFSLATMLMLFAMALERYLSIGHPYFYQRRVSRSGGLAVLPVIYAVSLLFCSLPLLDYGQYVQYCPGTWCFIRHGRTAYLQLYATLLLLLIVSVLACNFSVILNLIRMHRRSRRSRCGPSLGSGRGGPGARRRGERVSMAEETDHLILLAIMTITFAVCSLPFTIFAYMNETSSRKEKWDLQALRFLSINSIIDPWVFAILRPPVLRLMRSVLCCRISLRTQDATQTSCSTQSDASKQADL
Chain of PTRGER4 (EP4) (P35408 whole entry, looked up, the tested form may be a part): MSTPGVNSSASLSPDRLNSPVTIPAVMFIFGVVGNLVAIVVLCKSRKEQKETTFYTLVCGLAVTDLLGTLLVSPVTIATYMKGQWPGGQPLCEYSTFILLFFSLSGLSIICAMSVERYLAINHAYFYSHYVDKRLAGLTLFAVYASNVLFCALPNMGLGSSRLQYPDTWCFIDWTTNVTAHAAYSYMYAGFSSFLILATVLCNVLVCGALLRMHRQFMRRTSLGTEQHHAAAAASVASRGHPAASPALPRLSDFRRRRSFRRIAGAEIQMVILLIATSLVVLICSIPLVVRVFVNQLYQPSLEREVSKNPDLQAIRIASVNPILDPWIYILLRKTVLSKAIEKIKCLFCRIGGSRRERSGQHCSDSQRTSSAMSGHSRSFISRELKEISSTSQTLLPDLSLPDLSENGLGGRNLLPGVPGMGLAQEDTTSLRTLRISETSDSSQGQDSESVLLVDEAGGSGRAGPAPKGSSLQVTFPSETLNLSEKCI

Row | SMILES | IC50 (PTRGER4 (EP4)) | IC50 (PTGER2 (EP2))
1 | Cc1cc2c(Cl)ccc(F)c2n1CCNc1cc(-c2ccc(C(=O)O)cc2)ncn1 [compound 46] | 970 nM | 29 nM
2 | Cc1cc(F)cc2c1cc(C)n2CCNc1cc(-c2cc(F)c(C(=O)O)s2)ncn1 [compound 48] | 351 nM | 24 nM
3 | Cc1n[nH]c2cc(-c3cc(NCCn4c(C)cc5c(C)cc(F)cc54)ncn3)ccc12 [compound 52] | 583 nM | 221 nM
4 | Cc1cc(F)cc2c1cc(C)n2CCNc1cc(-c2ccc3cnn(C)c3c2)ncn1 [compound 53] | 350 nM | 98 nM
5 | Cc1ccc(F)c2c1cc(C)n2CCNc1cc(-c2ccc3nccnc3c2)ncn1 [compound 55, [2-(7-Fluoro-2,4-dimethyl-indol-1-yl)-ethyl]-(6-quinoxalin-6-yl-pyrimidin-4-yl)-amine] | 570 nM | 63 nM
6 | COc1ccc(Cl)c2c1cc(C)n2CCNc1cc(-c2ccc3[nH]cnc3c2)ncn1 [compound 56] | 698 nM | 151 nM
7 | COc1ccc(F)c2c1cc(C)n2CCNc1cc(-c2ccc3cn[nH]c3c2)ncn1 [compound 58, [2-(7-Fluoro-4-methoxy-2-methyl-indol-1-yl)-ethyl]-[6-(1H-indazol-6-yl)-pyrimidin-4-yl]-amine] | 477 nM | 22 nM
8 | Cc1cc(F)c(F)c2c1cc(C)n2CCNc1cc(-c2ccc3cc[nH]c3c2)ncn1 [compound 59, [2-(6,7-Difluoro-2,4-dimethyl-indol-1-yl)-ethyl]-[6-(1H-indol-6-yl)-pyrimidin-4-yl]-amine] | 485 nM | 213 nM
9 | Cc1cc(F)cc2c1cc(C)n2CCNc1cc(-c2ccc3c(c2)CC(=O)N3)ncn1 [compound 61] | 518 nM | 98 nM
10 | COc1ccc(F)c2c1cc(C)n2CCNc1cc(-c2ccc3cc[nH]c3c2)ncn1 [compound 68, [2-(7-Fluoro-4-methoxy-2-methyl-indol-1-yl)-ethyl]-[6-(1H-indol-6-yl)-pyrimidin-4-yl]-amine] | 388 nM | 24 nM
11 | Cc1ccc(F)c2c1cc(C)n2CCNc1cc(-c2ccc(-c3ncc[nH]3)cc2)ncn1 [compound 71] | 758 nM | 86 nM
12 | Cc1ccc(F)c2c1cc(C)n2CCNc1cc(-c2ccc(-n3cccn3)cc2)ncn1 [compound 73] | 970 nM | 214 nM
13 | COc1ccc(F)c2c1cc(C)n2CCNc1cc(-c2ccc3[nH]c(=O)[nH]c3c2)ncn1 [compound 74, 5-{6-[2-(7-Fluoro-4-methoxy-2-methyl-indol-1-yl)-ethylamino]-pyrimidin-4-yl}-1,3-dihydro-2H-benzo[d]imidazol-2-one] | 916 nM | 45 nM
14 | COc1cccc2c1cc(C)n2CCNc1cc(-c2ccc(-c3ncc[nH]3)cc2)ncn1 [compound 76, {6-[4-(1H-Imidazol-2-yl)-phenyl]-pyrimidin-4-yl}-[2-(4-methoxy-2-methyl-indol-1-yl)-ethyl]-amine] | 651 nM | 21 nM
15 | COc1cccc2c1cc(C)n2CCNc1cc(-c2ccc(-n3cccn3)cc2)ncn1 [compound 78, [2-(4-Methoxy-2-methyl-indol-1-yl)-ethyl]-[6-(4-pyrazol-1-yl-phenyl)-pyrimidin-4-yl]-amine] | 557 nM | 20 nM
16 | COc1ccc(Cl)c2c1cc(C)n2CCNc1cc(-c2ccc3[nH]c(C)nc3c2)ncn1 [compound 80] | 713 nM | 238 nM
17 | COc1ccc(Cl)c2c1cc(C)n2CCNc1cc(-c2ccc3cnn(C)c3c2)ncn1 [compound 82] | 968 nM | 193 nM
18 | COc1cccc2c1cc(C)n2CCNc1cc(-c2ccc3c(c2)CN(C)C3=O)ncn1 [compound 87] | 885 nM | 121 nM
19 | COc1ccc(F)c2c1cc(C)n2CCNc1cc(-c2ccc3c(c2)CNC3=O)ncn1 [compound 90, 5-{6-[2-(7-Fluoro-4-methoxy-2-methyl-indol-1-yl)-ethylamino]-pyrimidin-4-yl}-2,3-dihydro-isoindol-1-one] | 461 nM | 7 nM

These reach a lower IC50 (PTRGER4 (EP4)). Values come first.

Row | IC50 (PTRGER4 (EP4)) | IC50 (PTGER2 (EP2)) | SMILES
20 | 240 nM | 5 nM | Cc1cc2c(Cl)cc(Cl)cc2n1CCNc1cc(-c2cc(Cl)c(C(=O)O)s2)ncn1 [compound 44]
21 | 75 nM | 14 nM | Cc1cc(-c2cc(NCCn3c(C)cc4c(C)ccc(F)c43)ncn2)sc1C(=O)O [compound 45]
22 | 136 nM | 18 nM | Cc1ccc(F)c2c1cc(C)n2CCNc1cc(-c2cc(F)c(C(=O)O)s2)ncn1 [compound 47]
23 | 235 nM | 4 nM | COc1cccc2c1cc(C)n2CCNc1cc(-c2cc(F)c(C(=O)O)s2)ncn1 [compound 49]
24 | 161 nM | 1 nM | CCOc1cc(-c2cc(NCCn3c(C)cc4ccccc43)ncn2)sc1C(=O)O [compound 50]
25 | 143 nM | 3 nM | COc1cccc2c1cc(C)n2CCNc1cc(-c2cc(C)c(C(=O)O)s2)ncn1 [compound 51]
26 | 305 nM | 125 nM | Cc1nc2cc(-c3cc(NCCn4c(C)cc5c(C)ccc(F)c54)ncn3)ccc2[nH]1 [compound 54]
27 | 113 nM | 16 nM | COc1ccc(F)c2c1cc(C)n2CCNc1cc(-c2ccc3[nH]cnc3c2)ncn1 [compound 57, [6-(1H-Benzoimidazol-5-yl)-pyrimidin-4-yl]-[2-(7-fluoro-4-methoxy-2-methyl-indol-1-yl)-ethyl]-amine]
28 | 290 nM | 85 nM | COc1cccc2c1cc(C)n2CCNc1cc(-c2ccc3nc(C)oc3c2)ncn1 [compound 60]
29 | 32 nM | 11 nM | COc1cc(F)cc2c1cc(C)n2CCNc1cc(-c2ccc3c(c2)CCN3)ncn1 [compound 62, [6-(2,3-Dihydro-1H-indol-5-yl)-pyrimidin-4-yl]-[2-(6-fluoro-4-methoxy-2-methyl-indol-1-yl)-ethyl]-amine]
30 | 227 nM | 26 nM | COc1cc(F)cc2c1cc(C)n2CCNc1cc(-c2ccc3cc[nH]c3c2)ncn1 [compound 63, [2-(6-Fluoro-4-methoxy-2-methyl-indol-1-yl)-ethyl]-[6-(1H-indol-6-yl)-pyrimidin-4-yl]-amine]
31 | 231 nM | 47 nM | Cc1ccc(F)c2c1cc(C)n2CCNc1cc(-c2ccc3c(c2)CC(=O)N3)ncn1 [compound 64, 5-{6-[2-(7-Fluoro-2,4-dimethyl-indol-1-yl)-ethylamino]-pyrimidin-4-yl}-1,3-dihydro-indol-2-one]
32 | 189 nM | 21 nM | COc1ccc(Cl)c2c1cc(C)n2CCNc1cc(-c2ccc3c(c2)CCN3)ncn1 [compound 66, [2-(7-Chloro-4-methoxy-2-methyl-indol-1-yl)-ethyl]-[6-(2,3-dihydro-1H-indol-5-yl)-pyrimidin-4-yl]-amine]
33 | 59 nM | 10 nM | COc1ccc(F)c2c1cc(C)n2CCNc1cc(-c2ccc3c(c2)CCN3)ncn1 [compound 67, [6-(2,3-Dihydro-1H-indol-5-yl)-pyrimidin-4-yl]-[2-(7-fluoro-4-methoxy-2-methyl-indol-1-yl)-ethyl]-amine]
34 | 94 nM | 29 nM | Cc1cc(F)cc2c1cc(C)n2CCNc1cc(-c2ccc(-c3c[nH]cn3)cc2)ncn1 [compound 69, [2-(6-Fluoro-2,4-dimethyl-indol-1-yl)-ethyl]-{6-[4-(1H-imidazol-4-yl)-phenyl]-pyrimidin-4-yl}-amine]
35 | 145 nM | 33 nM | Cc1ccc(F)c2c1cc(C)n2CCNc1cc(-c2ccc(-c3ccn[nH]3)cc2)ncn1 [compound 70, [2-(7-Fluoro-2,4-dimethyl-indol-1-yl)-ethyl]-{6-[4-(2H-pyrazol-3-yl)-phenyl]-pyrimidin-4-yl}-amine]
36 | 28 nM | 45 nM | Cc1ccc(F)c2c1cc(C)n2CCNc1cc(-c2ccc(-c3c[nH]cn3)cc2)ncn1 [compound 72, [2-(7-Fluoro-2,4-dimethyl-indol-1-yl)-ethyl]-{6-[4-(1H-imidazol-4-yl)-phenyl]-pyrimidin-4-yl}-amine]
37 | 95 nM | 7 nM | COc1cccc2c1cc(C)n2CCNc1cc(-c2ccc(-c3ccn[nH]3)cc2)ncn1 [compound 75, [2-(4-Methoxy-2-methyl-indol-1-yl)-ethyl]-{6-[4-(2H-pyrazol-3-yl)-phenyl]-pyrimidin-4-yl}-amine]
38 | 89 nM | 8 nM | COc1cccc2c1cc(C)n2CCNc1cc(-c2ccc(-c3c[nH]cn3)cc2)ncn1 [compound 77, {6-[4-(1H-Imidazol-4-yl)-phenyl]-pyrimidin-4-yl}-[2-(4-methoxy-2-methyl-indol-1-yl)-ethyl]-amine]
39 | 197 nM | 11 nM | Cc1ccc(F)c2c1cc(C)n2CCNc1cc(-c2ccc(-c3ncno3)cc2)ncn1 [compound 79, [2-(7-Fluoro-2,4-dimethyl-indol-1-yl)-ethyl]-[6-(4-[1,2,4]oxadiazol-5-yl-phenyl)-pyrimidin-4-yl]-amine]
40 | 86 nM | 44 nM | COc1ccc(F)c2c1cc(C)n2CCNc1cc(-c2ccc3[nH]c(C)nc3c2)ncn1 [compound 81, [2-(7-Fluoro-4-methoxy-2-methyl-indol-1-yl)-ethyl]-[6-(2-methyl-1H-benzoimidazol-5-yl)-pyrimidin-4-yl]-amine]
41 | 310 nM | 89 nM | Cc1cc(F)cc2c1cc(C)n2CCNc1cc(-c2ccc(-c3ccns3)cc2)ncn1 [compound 84]
42 | 185 nM | 54 nM | COc1cc(F)cc2c1cc(C)n2CCNc1cc(-c2ccc3c(c2)CC(=O)N3)ncn1 [compound 88]
43 | 132 nM | 115 nM | COc1ccc(F)c2c1cc(C)n2CCNc1cc(-c2ccc3nc(C)oc3c2)ncn1 [compound 89]
